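Results reflect a 48-hour exposure of cells in 96-well plates to compound at five concentrations. Definition used: TGI = concentration required for complete inhibition of growth.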
How the values were obtained:
Test in all cases: inhibition of tumour cell growth, NCI panel, 48 h
A498 renal = tested on: A498 renal
HT29 colon = tested on: HT29 colon
OVCAR-4 ovarian = tested on: OVCAR-4 ovarian
SK-MEL-28 melanoma = tested on: SK-MEL-28 melanoma
SK-MEL-5 melanoma = tested on: SK-MEL-5 melanoma
SN12C renal = tested on: SN12C renal
TK-10 renal = tested on: TK-10 renal
UO-31 renal = tested on: UO-31 renal
SNB-19 CNS = tested on: SNB-19 CNS

SMILES	TGI (A498 renal)	TGI (HT29 colon)	TGI (OVCAR-4 ovarian)	TGI (SK-MEL-28 melanoma)	TGI (SK-MEL-5 melanoma)	TGI (SN12C renal)	TGI (TK-10 renal)	TGI (UO-31 renal)	TGI (SNB-19 CNS)
O=C1Nc2cc([N+](=O)[O-])c(Br)cc2C1=O	> 100 µM	41.9 µM	30.5 µM	36.3 µM	60.7 µM	32.7 µM	> 100 µM	36.2 µM	–
CC(=O)NNc1nc(C)c(C(=O)NNC(=O)C(=O)Nc2cccc(C(C)=O)c2)s1	47.8 µM	> 100 µM	64.3 µM	49 µM	> 100 µM	35.1 µM	31.1 µM	30.9 µM	> 100 µM
Cc1ccc(Sc2ccccc2[N+](=O)[O-])cc1	> 100 µM	62.2 µM	> 100 µM	60 µM	30.8 µM	> 100 µM	> 100 µM	> 100 µM	–
COc1ccc2nc3c(c(NCCCN(C)C)c2c1)CCCC3	36.3 µM	27.6 µM	18.5 µM	30.9 µM	29.2 µM	47.2 µM	> 100 µM	39.6 µM	48.8 µM
CCOC(=O)c1cc2c(OCc3ccccc3)c(OC)cc3c2c(n1)N(c1ccc(OC)cc1)C(C)C3 (configuration not stated)	> 50 µM	–	> 50 µM	> 50 µM	> 50 µM	> 50 µM	> 50 µM	> 50 µM	> 50 µM
CC1(C)C2CCC3(OCCO3)C1C(O)C2 (configuration not stated)	> 100 µM	> 100 µM	> 100 µM	> 100 µM	> 100 µM	–	> 100 µM	> 100 µM	> 100 µM
COc1cccc(/C(Cl)=C(\C=O)c2cccc(OC)c2)c1	36.3 µM	24.9 µM	55.3 µM	25.5 µM	23.8 µM	34.7 µM	51.2 µM	68.1 µM	38.2 µM
CCOC(=O)CCC1(C(=O)OCC)CCCC1=O (configuration not stated)	> 100 µM	> 100 µM	> 100 µM	> 100 µM	> 100 µM	> 100 µM	> 100 µM	> 100 µM	> 100 µM
COC(=O)C1=C(O)C(C(=O)OC)[C@]2(O)[C@@H](C(=O)OC)[C@H]1C[C@@H](c1ccccc1)[C@@H]2C(=O)OC (some centres not stated)	35.2 µM	36.7 µM	–	64.9 µM	–	32.1 µM	53.5 µM	26.6 µM	68.7 µM
Cc1cn(C2CC(CCCO)C(CO)O2)c(=O)[nH]c1=O (configuration not stated)	> 100 µM	> 100 µM	> 100 µM	> 100 µM	> 100 µM	> 100 µM	> 100 µM	> 100 µM	> 100 µM
CC(C)OP(=O)(OC(C)C)C1=NN(c2ccc([N+](=O)[O-])cc2)C(P(=O)(OC(C)C)OC(C)C)=NN1c1ccc([N+](=O)[O-])cc1	–	> 100 µM	> 100 µM	> 100 µM	> 100 µM	> 100 µM	> 100 µM	> 100 µM	> 100 µM
Cc1cccc2c1c1ccc3c(c1n2C)C(=O)C=CC3=O	44.5 µM	14 µM	24.3 µM	24.4 µM	29.6 µM	12.8 µM	7.19 µM	9.83 µM	32.3 µM
CCOC(=O)C(C)Sc1nnc(COc2ccccc2OC)n1-c1ccccc1 (configuration not stated)	> 100 µM	> 100 µM	> 100 µM	> 100 µM	> 100 µM	> 100 µM	> 100 µM	> 100 µM	> 100 µM
COC(=O)CC(C(C(=O)OCc1ccccc1)C(C)O)N1C(=O)OC(c2ccccc2)C1c1ccccc1 (configuration not stated)	> 100 µM	> 100 µM	> 100 µM	> 100 µM	> 100 µM	> 100 µM	> 100 µM	> 100 µM	> 100 µM
CCSCN(C)c1nc(N(C)C)nc(N(C)C)n1	> 100 µM	> 100 µM	> 100 µM	> 100 µM	> 100 µM	> 100 µM	> 100 µM	> 100 µM	> 100 µM
Cc1nnc2n(c1=O)CCN2C	–	> 100 µM	> 100 µM	> 100 µM	> 100 µM	> 100 µM	> 100 µM	> 100 µM	> 100 µM
CCCc1c(C(=O)OCC)[nH]c(-c2ccc(-c3[nH]c(C(=O)OCC)c(CCC)c3C(=O)OCC)s2)c1C(=O)OCC	> 100 µM	> 100 µM	> 100 µM	> 100 µM	> 100 µM	> 100 µM	> 100 µM	> 100 µM	> 100 µM
COc1cc(C2C(Cl)C(=O)N2NC(=O)c2ccc(NC(C)=O)cc2)ccc1O (configuration not stated)	> 100 µM	> 100 µM	> 100 µM	> 100 µM	> 100 µM	> 100 µM	> 100 µM	> 100 µM	> 100 µM
O=c1c2ccccc2nc(-c2ccccc2)n1NC(=S)Nc1ccc(Cl)cc1	> 100 µM	> 100 µM	> 100 µM	91.6 µM	> 100 µM	> 100 µM	> 100 µM	> 100 µM	–

Reference: PubChem BioAssay (NCI)
